These results are taken from patent publication US8912186B2, “Allosteric protein kinase modulators” (Universitaet des Saarlandes, priority 2008, dated 2014).

Holding throughout (type): biochemical
One assay deals with PKA (Homo sapiens, UniProt P17612). Description: cell-free kinase activity assay. The settings on record: DMSO control set 100%.
The target in the next assay is S6K (Homo sapiens, UniProt P23443). Description: cell-free kinase activity assay. To be noted: DMSO control set 100%; for remaining activity at 200 µM: 200 μM compound.
Another assay has as its target T1, PDK1 (Homo sapiens, UniProt O15530).
T1 construct: GST
T1 sequence (O15530 1-556): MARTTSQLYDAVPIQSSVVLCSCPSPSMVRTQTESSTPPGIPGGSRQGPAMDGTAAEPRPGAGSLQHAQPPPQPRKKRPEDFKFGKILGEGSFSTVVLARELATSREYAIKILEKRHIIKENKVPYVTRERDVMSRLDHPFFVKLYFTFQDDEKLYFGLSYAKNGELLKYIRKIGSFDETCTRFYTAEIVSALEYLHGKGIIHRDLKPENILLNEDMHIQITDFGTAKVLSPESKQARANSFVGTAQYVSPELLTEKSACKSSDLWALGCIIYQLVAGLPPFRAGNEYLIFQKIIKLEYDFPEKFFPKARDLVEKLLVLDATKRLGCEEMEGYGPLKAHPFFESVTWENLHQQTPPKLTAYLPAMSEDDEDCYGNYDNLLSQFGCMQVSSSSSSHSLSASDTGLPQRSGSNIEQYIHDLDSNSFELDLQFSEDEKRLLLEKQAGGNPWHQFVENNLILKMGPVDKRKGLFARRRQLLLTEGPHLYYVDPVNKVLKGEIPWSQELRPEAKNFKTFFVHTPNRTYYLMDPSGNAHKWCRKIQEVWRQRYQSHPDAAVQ
The assay is described as follows: cell-free kinase activity assay (ATPgamma[32P], T308tide substrate). The settings on record: for percent of catalytic activity of the Kinase in the presence of compound as compared to the solvent control (DMSO): PDK1 / activity at 50 µM / activity at 200 µM: DMSO control set 100%; for activity at 50 µM / activity at 200 µM: read-out: percent of catalytic activity of the Kinase in the presence of compound as compared to the solvent control (DMSO): PDK1. The text has this:
Principle of the cell-free kinase activity assay: In general, the activity of the compounds as protein kinase inhibitors or activators may be assayed in vitro (cell free assay is meant here), in vivo or in a cell line. In vitro assays include assays that determine inhibition or activation of either the phosphorylation activity or ATPase activity of the activated protein kinase. Alternate in vitro assays quantitate the ability of the inhibitor to bind to the protein kinase. Compound binding may be measured by radiolabelling the compound prior to binding, isolating the inhibitor or activator/protein kinase complex and determining the amount of radiolabel bound. Alternatively, inhibitor or activator binding may be determined by running a competition experiment where new compounds are incubated with the protein kinase bound to known radioligands. Newer methods comprise fluorescence polarisation assays and surface plasmon resonance dependent techniques. […] The activity and modulation of activity is measured using a standard ATPgamma[^32P] assay as described earlier. […] The concentration of T308tide is 1 mM and the amount of PDK1 used is 200 ng. Reactions are carried out at room temperature. Reaction is started by addition of ATP-Mg mix and stopped with phosphoric acid after 30 min. Stopped reactions were spotted on to phosphocellulose paper (P81, Whatman) and washed. After drying, the radioactivity associated to the band was quantified.

The target of another assay is T2, PKCζ (Homo sapiens, UniProt Q05513).
T2 sequence (Q05513 1-592): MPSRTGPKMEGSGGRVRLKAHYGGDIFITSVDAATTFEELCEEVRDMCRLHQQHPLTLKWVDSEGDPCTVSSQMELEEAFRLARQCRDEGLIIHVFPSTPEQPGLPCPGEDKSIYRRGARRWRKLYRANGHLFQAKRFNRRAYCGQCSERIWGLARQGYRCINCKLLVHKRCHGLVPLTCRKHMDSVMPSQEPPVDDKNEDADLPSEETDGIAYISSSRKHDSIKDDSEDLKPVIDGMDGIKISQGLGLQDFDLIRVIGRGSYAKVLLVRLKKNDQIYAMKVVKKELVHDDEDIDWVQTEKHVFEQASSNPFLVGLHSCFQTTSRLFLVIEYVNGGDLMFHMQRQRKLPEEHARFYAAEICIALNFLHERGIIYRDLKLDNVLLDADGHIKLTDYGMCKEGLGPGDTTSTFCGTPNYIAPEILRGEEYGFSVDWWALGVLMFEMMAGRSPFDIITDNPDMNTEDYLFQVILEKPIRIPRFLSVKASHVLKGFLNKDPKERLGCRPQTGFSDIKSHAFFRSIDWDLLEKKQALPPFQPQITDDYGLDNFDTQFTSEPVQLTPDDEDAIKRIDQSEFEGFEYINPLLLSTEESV
Description: cell-free kinase activity assay. The settings on record: DMSO control set 100%; for remaining activity at 50 µM / remaining activity at 200 µM: read-out: percent of catalytic activity of the Kinase in the presence of compound as compared to the solvent control (DMSO): PKCζ.

Another assay concerns the target T3, SGK (Homo sapiens, UniProt O00141).
T3 sequence (O00141 1-431): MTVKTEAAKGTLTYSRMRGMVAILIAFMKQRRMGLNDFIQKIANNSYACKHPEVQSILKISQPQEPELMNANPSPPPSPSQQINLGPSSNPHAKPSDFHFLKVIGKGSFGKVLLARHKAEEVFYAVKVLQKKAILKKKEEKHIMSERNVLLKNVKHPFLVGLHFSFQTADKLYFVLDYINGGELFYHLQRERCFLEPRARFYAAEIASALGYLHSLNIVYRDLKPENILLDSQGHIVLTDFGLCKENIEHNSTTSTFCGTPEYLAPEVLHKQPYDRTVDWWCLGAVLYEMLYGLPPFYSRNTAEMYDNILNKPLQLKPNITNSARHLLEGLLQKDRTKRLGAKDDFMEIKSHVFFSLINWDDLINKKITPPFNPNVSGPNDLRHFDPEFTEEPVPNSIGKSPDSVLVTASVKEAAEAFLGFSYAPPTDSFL
The assay is described as follows: cell-free kinase activity assay. The settings on record: DMSO control set 100%; for remaining activity at 200 µM: read-out: percent of catalytic activity of the Kinase in the presence of compound as compared to the solvent control (DMSO): SGK.

Another assay concerns the target PKBβ (Homo sapiens, UniProt P31751). Description: cell-free kinase activity assay. To be noted: DMSO control set 100%.
In a further assay the target is PRK2 (Homo sapiens, UniProt Q16513). Description: cell-free kinase activity assay. To be noted: DMSO control set 100%.
The mark [1] stands for this setting: read-out: percent of catalytic activity of the Kinase in the presence of compound as compared to the solvent control (DMSO): S6K.

Sequence of S6K (P23443 whole entry): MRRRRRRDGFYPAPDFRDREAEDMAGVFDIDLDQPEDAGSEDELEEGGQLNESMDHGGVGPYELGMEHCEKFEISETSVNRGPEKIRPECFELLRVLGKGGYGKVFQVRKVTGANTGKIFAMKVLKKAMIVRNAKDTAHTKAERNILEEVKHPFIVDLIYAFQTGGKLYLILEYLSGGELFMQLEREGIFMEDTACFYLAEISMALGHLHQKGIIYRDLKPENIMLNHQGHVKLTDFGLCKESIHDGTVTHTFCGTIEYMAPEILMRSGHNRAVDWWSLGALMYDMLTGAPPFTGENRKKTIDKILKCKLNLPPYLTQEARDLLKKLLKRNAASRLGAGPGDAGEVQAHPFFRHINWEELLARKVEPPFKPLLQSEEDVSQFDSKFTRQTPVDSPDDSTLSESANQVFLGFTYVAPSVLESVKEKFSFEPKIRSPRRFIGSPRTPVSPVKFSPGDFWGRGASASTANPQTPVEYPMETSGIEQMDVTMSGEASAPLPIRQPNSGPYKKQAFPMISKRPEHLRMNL
Sequence of PRK2 (Q16513 whole entry, species assumed): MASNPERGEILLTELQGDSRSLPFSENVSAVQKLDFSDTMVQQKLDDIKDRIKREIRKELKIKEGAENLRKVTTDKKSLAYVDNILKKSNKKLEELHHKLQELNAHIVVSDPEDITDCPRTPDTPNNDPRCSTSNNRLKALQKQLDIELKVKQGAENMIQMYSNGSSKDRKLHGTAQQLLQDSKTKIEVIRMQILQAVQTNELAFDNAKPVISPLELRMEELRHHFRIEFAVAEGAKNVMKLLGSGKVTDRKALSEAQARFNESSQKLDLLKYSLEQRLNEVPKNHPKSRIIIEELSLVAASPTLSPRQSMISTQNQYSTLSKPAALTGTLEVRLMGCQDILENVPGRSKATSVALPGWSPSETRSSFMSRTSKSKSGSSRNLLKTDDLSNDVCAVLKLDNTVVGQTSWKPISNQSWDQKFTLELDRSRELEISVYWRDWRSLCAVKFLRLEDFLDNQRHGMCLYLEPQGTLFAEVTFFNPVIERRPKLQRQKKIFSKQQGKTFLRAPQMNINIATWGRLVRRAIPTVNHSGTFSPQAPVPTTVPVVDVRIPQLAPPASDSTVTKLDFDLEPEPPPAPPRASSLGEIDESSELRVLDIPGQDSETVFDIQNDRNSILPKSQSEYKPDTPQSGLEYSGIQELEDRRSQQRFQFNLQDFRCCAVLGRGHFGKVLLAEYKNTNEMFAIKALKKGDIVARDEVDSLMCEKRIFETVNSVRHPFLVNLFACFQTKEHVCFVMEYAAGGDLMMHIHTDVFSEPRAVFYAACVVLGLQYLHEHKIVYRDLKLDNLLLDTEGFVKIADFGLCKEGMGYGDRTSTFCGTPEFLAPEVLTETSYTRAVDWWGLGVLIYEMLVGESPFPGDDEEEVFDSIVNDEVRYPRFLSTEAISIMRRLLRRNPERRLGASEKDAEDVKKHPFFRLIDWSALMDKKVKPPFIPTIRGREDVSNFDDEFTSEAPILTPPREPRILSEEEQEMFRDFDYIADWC
Sequence of PKBβ (P31751 whole entry, species assumed): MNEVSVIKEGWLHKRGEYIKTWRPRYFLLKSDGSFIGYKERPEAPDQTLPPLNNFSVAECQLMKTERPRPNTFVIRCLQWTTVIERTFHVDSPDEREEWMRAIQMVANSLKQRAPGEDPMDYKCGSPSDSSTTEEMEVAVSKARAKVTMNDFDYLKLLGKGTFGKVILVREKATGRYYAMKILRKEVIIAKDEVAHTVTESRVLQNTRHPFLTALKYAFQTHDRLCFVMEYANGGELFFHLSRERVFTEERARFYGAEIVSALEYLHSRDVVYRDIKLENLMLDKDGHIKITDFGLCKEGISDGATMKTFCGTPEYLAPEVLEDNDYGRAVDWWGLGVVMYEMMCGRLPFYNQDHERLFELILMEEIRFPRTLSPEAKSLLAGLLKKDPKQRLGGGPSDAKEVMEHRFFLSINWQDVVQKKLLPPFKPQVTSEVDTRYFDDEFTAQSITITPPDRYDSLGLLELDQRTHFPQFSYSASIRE

`O=C(O)/C=C(/c1ccccc1)c1cc2cc(Cl)ccc2s1` [PS 118, (Z)-3-(5-Chloro-2-benzothiophenyl)-3-phenylacrylic acid]: the “percent of catalytic activity of the Kinase in the presence of compound as compared to the solvent control (DMSO): PKA” value (“percent of catalytic activity … PKA” for short) at PKA (50 μM compound) and on PKA (200 μM compound) was “no effect” throughout. Moreover, the remaining activity at 50 µM on S6K (50 μM compound, read-out: percent of catalytic activity of the Kinase in the presence of compound as compared to the solvent control (DMSO): S6K) is 85%; on PKCζ (50 μM compound), 10 to 20%; on PKBβ (50 μM compound, read-out: percent of catalytic activity of the Kinase in the presence of compound as compared to the solvent control (DMSO): PKBβ), 90%. For the same compound, the remaining activity at 200 µM at S6K (setting [1]) is 25%; at PKCζ (200 μM compound), 0%; at SGK (200 μM compound), around 20%; on PKBβ (200 μM compound, read-out: percent of catalytic activity of the Kinase in the presence of compound as compared to the solvent control (DMSO): PKBβ), 25%. The “percent of catalytic activity of the Kinase in the presence of compound as compared to the solvent control (DMSO): PDK1” value at PDK1 (50 μM compound) and on PDK1 (200 μM compound) was “no effect” in each case. Moreover, the “AC50 PDK1 (μM)” value at PDK1 (concentration of the compound required to activate half maximally, n.e.: no effect) is given as “n.e”. At PDK1 (maximum activation achievable, compared to the basal activity of PDK1, n.e.: no effect), the “max. activation of PDK1 (fold)” value is “n.e”. The “percent of catalytic activity of the Kinase in the presence of compound as compared to the solvent control (DMSO): SGK” value (from here on “percent of catalytic activity … SGK”) at SGK (50 μM compound) is reported as “no effect”. Also, the “percent of catalytic activity of the Kinase in the presence of compound as compared to the solvent control (DMSO): PRK2” value (from here on “percent of catalytic activity … PRK2”) at PRK2 (50 μM compound) and on PRK2 (200 μM compound) was “no effect” in each case.
With `O=C(O)CC(CC(=O)N1Cc2ccc(Cl)cc2C1)c1ccc(Cl)cc1` (stereo not shown) [PS 141], the “percent of catalytic activity … PKA” value at PKA (50 μM compound) and at PKA (200 μM compound) was “no effect” each time. Further, on S6K (50 μM compound), the “percent of catalytic activity of the Kinase in the presence of compound as compared to the solvent control (DMSO): S6K” value (shortened to “percent of catalytic activity … S6K”) was “no effect”. Besides, the remaining activity at 200 µM at S6K (setting [1]) is around 80%; at PKCζ (200 μM compound) it was 30 to 40%; at SGK (200 μM compound), 70 to 80%. In addition, at PDK1 (50 μM compound), the activity at 50 µM worked out at 300%. The activity at 200 µM at PDK1 (200 μM compound) came to 400%. For the same compound, the remaining activity at 50 µM on PKCζ (50 μM compound) is 80%. At SGK (50 μM compound), the “percent of catalytic activity … SGK” value was “no effect”. The “percent of catalytic activity of the Kinase in the presence of compound as compared to the solvent control (DMSO): PKBβ” value (shortened to “percent of catalytic activity … PKBβ”) on PKBβ (50 μM compound) and at PKBβ (200 μM compound) was “no effect” each time. In addition, the “percent of catalytic activity … PRK2” value on PRK2 (50 μM compound) and at PRK2 (200 μM compound) was “no effect” in each case.
Consider `O=C(O)CC(C(=O)N1CCc2ccccc2C1)c1ccc(Cl)cc1` (stereo not shown) [PS 152], for which the “percent of catalytic activity … PKA” value at PKA (50 μM compound) and on PKA (200 μM compound) was “no effect” each time. Further, at S6K (50 μM compound), the “percent of catalytic activity … S6K” value was “no effect”. Also, on S6K (setting [1]), the remaining activity at 200 µM is around 80%. Further, the activity at 50 µM on PDK1 (50 μM compound) was determined as 240%. Moreover, the activity at 200 µM on PDK1 (200 μM compound) is 310%. In addition, the “percent of catalytic activity of the Kinase in the presence of compound as compared to the solvent control (DMSO): PKCζ” value at PKCζ (50 μM compound) and on PKCζ (200 μM compound) was “no effect” in each case. The “percent of catalytic activity … SGK” value on SGK (50 μM compound) and on SGK (200 μM compound) was “no effect” each time. Moreover, the “percent of catalytic activity … PKBβ” value on PKBβ (50 μM compound) and on PKBβ (200 μM compound) was “no effect” each time. In addition, the “percent of catalytic activity … PRK2” value at PRK2 (50 μM compound) and at PRK2 (200 μM compound) was “no effect” throughout.
For the compound `O=C(O)CC(Cc1nc2cc(Cl)c(Cl)cc2[nH]1)c1ccccc1` (stereo not shown) [PS 163, 4-(5,6-Dichloro-2-benzimidazolyl)-3-phenylbutanoic acid], the “percent of catalytic activity … PKA” value on PKA (50 μM compound) and on PKA (200 μM compound) was “no effect” in each case. At S6K (50 μM compound), the “percent of catalytic activity … S6K” value is reported as “no effect”. In addition, the figures for the remaining activity at 200 µM at S6K (setting [1]), at PKCζ (200 μM compound) and on SGK (200 μM compound) were around 50%, 50% and around 60%, respectively. Moreover, the activity at 50 µM on PDK1 (50 μM compound) is around 250%. Moreover, the activity at 200 µM on PDK1 (200 μM compound) was above 250%. Moreover, the “percent of catalytic activity of the Kinase in the presence of compound as compared to the solvent control (DMSO): PKCζ” value on PKCζ (50 μM compound) is recorded as “no effect”. For the same compound, the “percent of catalytic activity … SGK” value at SGK (50 μM compound) is “no effect”. Also, the “percent of catalytic activity … PKBβ” value on PKBβ (50 μM compound) and at PKBβ (200 μM compound) was “no effect” throughout. Moreover, the “percent of catalytic activity … PRK2” value on PRK2 (50 μM compound) and at PRK2 (200 μM compound) was “no effect” throughout.
